Legend:
[1] = target: Tyrosine-protein kinase Mer (Homo sapiens) (UniProt Q12866); assay: Inhibition of MERTK assessed as enzyme activity at 1 uM relative to untreated control; design: scale not given: the % may be the effect or the level left
[2] = target: Misshapen-like kinase 1 (Homo sapiens) (UniProt Q8N4C8); assay: Inhibition of MINK assessed as enzyme activity at 1 uM relative to untreated control; design: scale not given: the % may be the effect or the level left
[3] = target: Serine/threonine-protein kinase 24 (Homo sapiens) (UniProt Q9Y6E0); assay: Inhibition of MST3 assessed as enzyme activity at 1 uM relative to untreated control; design: scale not given: the % may be the effect or the level left
[4] = target: Serine/threonine-protein kinase 26 (Homo sapiens) (UniProt Q9P289); assay: Inhibition of MST4 assessed as enzyme activity at 1 uM relative to untreated control; design: scale not given: the % may be the effect or the level left
[5] = target: Serine/threonine-protein kinase Nek9 (Homo sapiens) (UniProt Q8TD19); assay: Inhibition of NEK9 assessed as enzyme activity at 1 uM relative to untreated control; design: scale not given: the % may be the effect or the level left
[6] = target: Mitogen-activated protein kinase 12 (Homo sapiens) (UniProt P53778); assay: Inhibition of p38-gamma assessed as enzyme activity at 1 uM relative to untreated control; design: scale not given: the % may be the effect or the level left
[7] = target: Tyrosine-protein kinase JAK3 (Homo sapiens) (UniProt P52333); assay: Inhibition of JAK3 kinase domain 2 assessed as enzyme activity at 1 uM relative to untreated control; design: scale not given: the % may be the effect or the level left
[8] = target: Serine/threonine-protein kinase MARK2 (Homo sapiens) (UniProt Q7KZI7); assay: Inhibition of MARK2 assessed as enzyme activity at 1 uM relative to untreated control; design: scale not given: the % may be the effect or the level left
[9] = target: Bone morphogenetic protein receptor type-1B (Homo sapiens) (UniProt O00238); assay: Inhibition of BMPR1B assessed as enzyme activity at 1 uM relative to untreated control; design: scale not given: the % may be the effect or the level left
[10] = target: Cyclin-dependent kinase 2 (Homo sapiens) (UniProt P24941); assay: Inhibition of CDK2 assessed as enzyme activity at 1 uM relative to untreated control; design: scale not given: the % may be the effect or the level left
[11] = target: Cyclin-dependent kinase 3 (Homo sapiens) (UniProt Q00526); assay: Inhibition of CDK3 assessed as enzyme activity at 1 uM relative to untreated control; design: scale not given: the % may be the effect or the level left
[12] = target: Proto-oncogene tyrosine-protein kinase receptor Ret (Homo sapiens) (UniProt P07949); assay: Inhibition of RET assessed as enzyme activity at 1 uM relative to untreated control; design: scale not given: the % may be the effect or the level left
Chain of Proto-oncogene tyrosine-protein kinase receptor Ret (Homo sapiens) (P07949 whole entry): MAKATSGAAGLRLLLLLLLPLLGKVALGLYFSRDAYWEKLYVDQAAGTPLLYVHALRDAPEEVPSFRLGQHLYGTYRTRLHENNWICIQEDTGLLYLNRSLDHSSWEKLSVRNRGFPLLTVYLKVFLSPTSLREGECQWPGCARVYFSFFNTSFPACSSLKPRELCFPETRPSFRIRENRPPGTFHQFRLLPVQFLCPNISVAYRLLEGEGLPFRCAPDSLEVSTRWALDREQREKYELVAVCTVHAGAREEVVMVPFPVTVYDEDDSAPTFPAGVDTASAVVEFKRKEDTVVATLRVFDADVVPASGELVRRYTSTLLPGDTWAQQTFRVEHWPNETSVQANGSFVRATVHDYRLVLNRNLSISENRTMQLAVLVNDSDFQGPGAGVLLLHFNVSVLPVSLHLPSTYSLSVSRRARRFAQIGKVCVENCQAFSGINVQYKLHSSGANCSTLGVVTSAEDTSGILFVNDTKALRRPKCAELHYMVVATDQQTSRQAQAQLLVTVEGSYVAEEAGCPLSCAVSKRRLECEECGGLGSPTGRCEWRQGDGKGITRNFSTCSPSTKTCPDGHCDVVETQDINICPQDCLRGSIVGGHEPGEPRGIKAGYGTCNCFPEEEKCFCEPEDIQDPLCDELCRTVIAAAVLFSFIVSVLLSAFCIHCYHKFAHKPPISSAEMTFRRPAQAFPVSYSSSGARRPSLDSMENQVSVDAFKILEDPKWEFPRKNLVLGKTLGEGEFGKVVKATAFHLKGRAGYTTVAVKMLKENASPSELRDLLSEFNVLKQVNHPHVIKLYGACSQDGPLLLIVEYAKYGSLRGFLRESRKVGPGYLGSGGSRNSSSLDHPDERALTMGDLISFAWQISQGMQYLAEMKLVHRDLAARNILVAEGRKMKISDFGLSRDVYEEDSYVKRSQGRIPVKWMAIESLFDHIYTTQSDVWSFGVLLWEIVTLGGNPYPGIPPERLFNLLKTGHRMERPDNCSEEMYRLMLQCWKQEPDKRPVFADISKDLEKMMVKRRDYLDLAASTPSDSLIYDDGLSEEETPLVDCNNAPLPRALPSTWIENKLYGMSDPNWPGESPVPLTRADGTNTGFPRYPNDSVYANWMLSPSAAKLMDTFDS

[13] = target: Receptor-interacting serine/threonine-protein kinase 1 (Homo sapiens) (UniProt Q13546); assay: Inhibition of RIPK1 assessed as enzyme activity at 1 uM relative to untreated control; design: scale not given: the % may be the effect or the level left
[14] = target: SRSF protein kinase 1 (Homo sapiens) (UniProt Q96SB4); assay: Inhibition of SRPK1 assessed as enzyme activity at 1 uM relative to untreated control; design: scale not given: the % may be the effect or the level left
[15] = target: Ephrin type-B receptor 1 (Homo sapiens) (UniProt P54762); assay: Inhibition of EPHB1 assessed as enzyme activity at 1 uM relative to untreated control; design: scale not given: the % may be the effect or the level left
[16] = target: Ephrin type-B receptor 3 (Homo sapiens) (UniProt P54753); assay: Inhibition of EPHB3 assessed as enzyme activity at 1 uM relative to untreated control; design: scale not given: the % may be the effect or the level left
[17] = tested on: Receptor-type tyrosine-protein kinase FLT3 (Homo sapiens), P36888 [D835Y]; assay: Inhibition of FLT3 D835Y mutant assessed as enzyme activity at 1 uM relative to untreated control; design: scale not given: the % may be the effect or the level left
[18] = target: Glycogen synthase kinase-3 alpha (Homo sapiens) (UniProt P49840); assay: Inhibition of GSK3A assessed as enzyme activity at 1 uM relative to untreated control; design: scale not given: the % may be the effect or the level left
[19] = target: Homeodomain-interacting protein kinase 1 (Homo sapiens) (UniProt Q86Z02); assay: Inhibition of HIPK1 assessed as enzyme activity at 1 uM relative to untreated control; design: scale not given: the % may be the effect or the level left
[20] = target: Insulin receptor-related protein (Homo sapiens) (UniProt P14616); assay: Inhibition of INSRR assessed as enzyme activity at 1 uM relative to untreated control; design: scale not given: the % may be the effect or the level left
[21] = target: Serine/threonine-protein kinase 17B (Homo sapiens) (UniProt O94768); assay: Inhibition of DRAK2 assessed as enzyme activity at 1 uM relative to untreated control; design: scale not given: the % may be the effect or the level left
[22] = target: Epidermal growth factor receptor (Homo sapiens) (UniProt P00533); assay: Inhibition of EGFR assessed as enzyme activity at 1 uM relative to untreated control; design: scale not given: the % may be the effect or the level left
[23] = tested on: Epidermal growth factor receptor (Homo sapiens), P00533 [UNDEFINED MUTATION]; assay: Inhibition of EGFR L747-E749del A750P assessed as enzyme activity at 1 uM relative to untreated control; format: protein assay; design: scale not given: the % may be the effect or the level left
Chain of Epidermal growth factor receptor (Homo sapiens), P00533 [UNDEFINED MUTATION] (P00533 whole entry, looked up, stated change not applied): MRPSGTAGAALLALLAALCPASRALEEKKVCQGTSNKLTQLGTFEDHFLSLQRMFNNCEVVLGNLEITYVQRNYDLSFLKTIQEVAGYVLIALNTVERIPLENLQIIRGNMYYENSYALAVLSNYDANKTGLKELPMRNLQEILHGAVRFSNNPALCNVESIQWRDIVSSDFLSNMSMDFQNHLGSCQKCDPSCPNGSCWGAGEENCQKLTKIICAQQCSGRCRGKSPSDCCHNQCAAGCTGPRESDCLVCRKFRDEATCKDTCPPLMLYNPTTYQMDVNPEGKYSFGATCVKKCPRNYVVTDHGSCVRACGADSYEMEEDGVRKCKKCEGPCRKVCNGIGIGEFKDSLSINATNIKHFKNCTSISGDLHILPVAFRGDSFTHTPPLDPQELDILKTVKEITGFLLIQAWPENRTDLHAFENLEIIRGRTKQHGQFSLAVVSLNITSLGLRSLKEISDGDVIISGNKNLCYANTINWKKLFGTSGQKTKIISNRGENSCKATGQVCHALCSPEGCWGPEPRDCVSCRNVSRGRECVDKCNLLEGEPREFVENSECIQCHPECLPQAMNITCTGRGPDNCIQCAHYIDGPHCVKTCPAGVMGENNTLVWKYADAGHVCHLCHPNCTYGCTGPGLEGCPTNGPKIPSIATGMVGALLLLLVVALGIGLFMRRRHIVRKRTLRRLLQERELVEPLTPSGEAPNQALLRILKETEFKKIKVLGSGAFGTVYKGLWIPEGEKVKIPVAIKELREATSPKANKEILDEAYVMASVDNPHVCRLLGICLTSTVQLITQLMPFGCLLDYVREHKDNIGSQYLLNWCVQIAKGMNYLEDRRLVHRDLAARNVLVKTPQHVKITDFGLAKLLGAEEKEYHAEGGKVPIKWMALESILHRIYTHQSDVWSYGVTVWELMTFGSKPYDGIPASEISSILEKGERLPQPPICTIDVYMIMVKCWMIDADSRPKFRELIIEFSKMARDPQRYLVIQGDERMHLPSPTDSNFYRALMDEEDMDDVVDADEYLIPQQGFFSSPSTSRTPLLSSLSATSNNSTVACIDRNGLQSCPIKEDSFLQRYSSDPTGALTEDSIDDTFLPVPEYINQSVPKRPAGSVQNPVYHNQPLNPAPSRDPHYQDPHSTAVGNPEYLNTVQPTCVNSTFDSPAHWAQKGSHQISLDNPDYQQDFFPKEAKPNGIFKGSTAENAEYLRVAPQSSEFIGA

[24] = target: SRSF protein kinase 3 (Homo sapiens) (UniProt Q9UPE1); assay: Inhibition of SRPK3 assessed as enzyme activity at 1 uM relative to untreated control; design: scale not given: the % may be the effect or the level left
Chain of SRSF protein kinase 3 (Homo sapiens) (Q9UPE1 whole entry): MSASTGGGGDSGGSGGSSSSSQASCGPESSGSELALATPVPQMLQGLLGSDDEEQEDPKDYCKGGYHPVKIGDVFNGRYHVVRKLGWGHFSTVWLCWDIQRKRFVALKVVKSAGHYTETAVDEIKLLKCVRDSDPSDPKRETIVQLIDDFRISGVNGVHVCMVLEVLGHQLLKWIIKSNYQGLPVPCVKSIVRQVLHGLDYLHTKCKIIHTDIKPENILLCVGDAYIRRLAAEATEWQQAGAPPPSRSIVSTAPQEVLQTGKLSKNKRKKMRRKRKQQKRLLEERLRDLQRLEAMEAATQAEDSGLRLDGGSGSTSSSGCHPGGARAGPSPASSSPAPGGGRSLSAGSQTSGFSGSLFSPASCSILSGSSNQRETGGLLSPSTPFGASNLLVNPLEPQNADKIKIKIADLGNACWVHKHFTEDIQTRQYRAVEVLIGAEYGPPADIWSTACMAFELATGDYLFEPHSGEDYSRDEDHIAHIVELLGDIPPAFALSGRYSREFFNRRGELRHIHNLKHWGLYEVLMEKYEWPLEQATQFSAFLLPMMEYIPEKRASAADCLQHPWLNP

A-375 = assay: Antitumor activity against human A375 SQ2 cells xenografted in po dosed CD1 mouse assessed as inhibition of tumor growth administered once daily for 14 days; format: functional; details: 336 h
[25] = AUC (0 to 24 hrs) in human A375 SQ2 cells xenografted po dosed CD1 mouse administered once daily for 14 days; format: ADME, organism-based, A-375; design: time < 24 hr, route oral; details: in vivo
[26] = target: Atypical kinase COQ8A, mitochondrial (Homo sapiens) (UniProt Q8NI60); assay: Inhibition of ADCK3 assessed as enzyme activity at 1 uM relative to untreated control; design: scale not given: the % may be the effect or the level left
Chain of Atypical kinase COQ8A, mitochondrial (Homo sapiens) (Q8NI60 163-647 limits assumed): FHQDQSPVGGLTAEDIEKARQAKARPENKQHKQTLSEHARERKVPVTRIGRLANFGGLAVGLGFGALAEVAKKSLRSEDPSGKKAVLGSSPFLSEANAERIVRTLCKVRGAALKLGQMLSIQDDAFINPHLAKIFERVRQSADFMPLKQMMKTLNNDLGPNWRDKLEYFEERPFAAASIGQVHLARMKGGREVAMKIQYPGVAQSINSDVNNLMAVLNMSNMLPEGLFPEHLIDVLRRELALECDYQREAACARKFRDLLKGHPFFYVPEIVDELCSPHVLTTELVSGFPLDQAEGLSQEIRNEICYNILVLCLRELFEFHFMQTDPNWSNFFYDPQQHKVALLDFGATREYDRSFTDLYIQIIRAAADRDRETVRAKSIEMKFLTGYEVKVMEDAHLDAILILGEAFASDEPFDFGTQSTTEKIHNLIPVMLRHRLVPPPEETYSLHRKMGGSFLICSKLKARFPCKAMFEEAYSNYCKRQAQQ

[27] = target: Cyclin-dependent kinase 16 (Homo sapiens) (UniProt Q00536); assay: Inhibition of PCTK1 assessed as enzyme activity at 1 uM relative to untreated control; design: scale not given: the % may be the effect or the level left
[28] = target: cAMP-dependent protein kinase catalytic subunit beta (Homo sapiens) (UniProt P22694); assay: Inhibition of PKACbeta assessed as enzyme activity at 1 uM relative to untreated control; design: scale not given: the % may be the effect or the level left
[29] = target: Serine/threonine-protein kinase D1 (Homo sapiens) (UniProt Q15139); assay: Inhibition of PRKD1 assessed as enzyme activity at 1 uM relative to untreated control; design: scale not given: the % may be the effect or the level left
Chain of Serine/threonine-protein kinase D1 (Homo sapiens) (Q15139 whole entry, the tested form may be a part): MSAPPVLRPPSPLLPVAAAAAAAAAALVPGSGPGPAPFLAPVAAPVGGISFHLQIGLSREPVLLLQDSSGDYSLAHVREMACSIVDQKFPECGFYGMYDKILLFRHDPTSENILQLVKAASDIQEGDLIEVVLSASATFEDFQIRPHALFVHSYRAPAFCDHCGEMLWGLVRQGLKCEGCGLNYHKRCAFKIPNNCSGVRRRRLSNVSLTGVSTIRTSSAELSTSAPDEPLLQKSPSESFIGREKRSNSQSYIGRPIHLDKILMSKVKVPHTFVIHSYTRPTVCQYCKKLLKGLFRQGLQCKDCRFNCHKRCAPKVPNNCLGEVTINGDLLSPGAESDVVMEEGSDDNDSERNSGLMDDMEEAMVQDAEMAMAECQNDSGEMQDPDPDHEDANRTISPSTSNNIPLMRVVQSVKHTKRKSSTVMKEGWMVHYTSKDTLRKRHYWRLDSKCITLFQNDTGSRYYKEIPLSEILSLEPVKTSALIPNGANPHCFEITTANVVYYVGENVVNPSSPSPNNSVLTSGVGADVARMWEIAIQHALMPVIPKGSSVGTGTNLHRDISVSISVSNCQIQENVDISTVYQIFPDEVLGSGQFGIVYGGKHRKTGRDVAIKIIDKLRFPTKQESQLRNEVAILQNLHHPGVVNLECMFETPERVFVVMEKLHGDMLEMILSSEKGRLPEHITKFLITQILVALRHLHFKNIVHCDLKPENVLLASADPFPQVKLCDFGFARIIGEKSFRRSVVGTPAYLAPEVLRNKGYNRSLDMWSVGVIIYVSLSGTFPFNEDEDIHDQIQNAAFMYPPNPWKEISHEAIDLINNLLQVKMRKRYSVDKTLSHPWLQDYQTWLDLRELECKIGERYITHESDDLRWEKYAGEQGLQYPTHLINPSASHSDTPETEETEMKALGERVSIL

[30] = target: Ankyrin repeat and protein kinase domain-containing protein 1 (Homo sapiens) (UniProt Q8NFD2); assay: Inhibition of ANKK1 assessed as enzyme activity at 1 uM relative to untreated control; design: scale not given: the % may be the effect or the level left
[31] = target: Tyrosine-protein kinase SYK (Homo sapiens) (UniProt P43405); assay: Inhibition of SYK assessed as enzyme activity at 1 uM relative to untreated control; design: scale not given: the % may be the effect or the level left
[32] = target: Tyrosine-protein kinase Tec (Homo sapiens) (UniProt P42680); assay: Inhibition of TEC assessed as enzyme activity at 1 uM relative to untreated control; design: scale not given: the % may be the effect or the level left
[33] = target: Dual specificity testis-specific protein kinase 1 (Homo sapiens) (UniProt Q15569); assay: Inhibition of TESK1 assessed as enzyme activity at 1 uM relative to untreated control; design: scale not given: the % may be the effect or the level left
[34] = target: Non-receptor tyrosine-protein kinase TYK2 (Homo sapiens) (UniProt P29597); assay: Inhibition of TYK2 kinase domain 1 assessed as enzyme activity at 1 uM relative to untreated control; design: scale not given: the % may be the effect or the level left
[35] = target: Serine/threonine-protein kinase 32C (Homo sapiens) (UniProt Q86UX6); assay: Inhibition of YANK3 assessed as enzyme activity at 1 uM relative to untreated control; design: scale not given: the % may be the effect or the level left
[36] = target: Tyrosine-protein kinase ZAP-70 (Homo sapiens) (UniProt P43403); assay: Inhibition of ZAP70 assessed as enzyme activity at 1 uM relative to untreated control; design: scale not given: the % may be the effect or the level left
Chain of Tyrosine-protein kinase ZAP-70 (Homo sapiens) (P43403 whole entry): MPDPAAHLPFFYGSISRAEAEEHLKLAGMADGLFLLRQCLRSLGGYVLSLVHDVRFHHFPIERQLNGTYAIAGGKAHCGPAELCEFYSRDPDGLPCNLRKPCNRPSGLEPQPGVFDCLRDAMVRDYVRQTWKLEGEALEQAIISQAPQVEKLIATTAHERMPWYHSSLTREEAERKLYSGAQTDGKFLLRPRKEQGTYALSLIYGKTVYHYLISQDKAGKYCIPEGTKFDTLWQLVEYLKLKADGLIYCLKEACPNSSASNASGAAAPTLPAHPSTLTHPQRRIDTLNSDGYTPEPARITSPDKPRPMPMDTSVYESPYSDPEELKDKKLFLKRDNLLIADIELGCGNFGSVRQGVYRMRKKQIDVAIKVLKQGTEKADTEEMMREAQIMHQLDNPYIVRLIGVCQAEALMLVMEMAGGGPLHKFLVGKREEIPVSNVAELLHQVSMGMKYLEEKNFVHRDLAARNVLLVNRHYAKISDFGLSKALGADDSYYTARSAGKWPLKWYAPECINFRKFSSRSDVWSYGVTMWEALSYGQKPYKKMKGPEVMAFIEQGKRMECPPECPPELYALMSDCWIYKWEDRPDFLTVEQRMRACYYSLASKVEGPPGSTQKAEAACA

SMILES: Cc1ccc2c(Nc3ccc(Cl)cc3)nccc2c1Nc1ncccc1-c1ncnc2[nH]cnc12.Cl.Cl.Cl
- Activity [1]: 99%
- Activity [2]: 80%
- Activity [3]: 87%
- Activity [4]: 100%
- Activity [5]: 89%
- Activity [6]: 100%
- Activity [7]: 100%
- Activity [8]: 100%
- Activity [9]: 96%
- Activity [10]: 100%
- Activity [11]: 84%
- Activity [12]: 65%
- Activity [13]: 92%
- Activity [14]: 100%
- Activity [15]: 2%
- Activity [16]: 10%
- Activity [17]: 92%
- Activity [18]: 100%
- Activity [19]: 99%
- Activity [20]: 78%
- Activity [21]: 96%
- Activity [22]: 100%
- Activity [23]: 89%
- Activity [24]: 100%
- ED50 (A-375): 1.3 mg/kg
- AUC at 24 h [25]: 2730 ng·h/mL
- Activity [26]: 100%
- Activity [27]: 98%
- Activity [28]: 94%
- Activity [29]: 100%
- Activity [30]: 100%
- Activity [31]: 86%
- Activity [32]: 100%
- Activity [33]: 21%
- Activity [34]: 96%
- Activity [35]: 84%
- Activity [36]: 100%

— ChEMBL document CHEMBL1155237, “Selective inhibitors of the mutant B-Raf pathway: discovery of a potent and orally bioavailable aminoisoquinoline” (J Med Chem, 2009)
